Experimental data from patent publication US6605469B1, “Nucleic acid molecule encoding a cytochrome P-450 hydroxylase in brassinosteroid biosynthesis in plants” (Korea Kumho Petrochemical Co., Ltd., priority 2000, dated 2003).

Tests used:
[1] = tested on: anti-sense pra2 transgenic plants; assay: Complementation of dark-grown anti-sense pra2 transgenic plants with phytohormones and BR intermediates (hypocotyl length); assay type: in vivo, Nicotiana tabacum; conditions: for stimulatory effect on hypocotyls as % of the BL effect / rescue of the dwarfish hypocotyls in BR feeding experiment: anti-sense pra2 transgenic plants grown 5 days in complete darkness; for stimulatory effect on hypocotyls as % of the BL effect: 6-OHCS 10^-8 M, 6-deoxoCS 10^-8 M; for rescue of the dwarfish hypocotyls in BR feeding experiment: CS 10^-8 M
Procedure: Seeds of Nicotiana tabacum (Petit Havana SR1) were germinated and grown in sterile condition at 25° C. with a 16-hour photoperiod. The Arabidopsis thaliana ecotype Columbia (Col-0) was germinated and grown on 0.5×Murashige and Skoog medium containing 1% agar and Suc. All Arabidopsis cultures were maintained in a controlled environment culture room at 22° C. with the humidity of 70% and the photoperiod of 12 hours. Feeding experiments were also performed in the same culture conditions.
Plant growth regulators tested were BR, GA, auxin, cytokinine, abscisic acid, and salicylic acid. The BR hormones included the most oxidized brassinolide (BL, 10^−8 M) and various intermediates, such as campestanol (CN, 10^−6 M), 6-oxocampestanol (6-oxoCN, 10^−6 M), 6-deoxocathasterone (6-deoxoCT, 10^−6 M), cathasterone (CT, 10^−6 M), 6-deoxoteasterone (6-deoxoTE, 10^−6 M), teasterone (TE, 10^−6 M), 6-deoxotyphasterol (6-deoxoTY, 10^−7 M), typhasterol (TY, 10^−7 M), 6-deoxocastasterone (6-deoxoCS, 10^−8 M), 6α-hydroxycastasterone (6-OHCS, 10^−8 M), and castasterone (CS, 10^−8 M). Each BR intermediates were used at the concentrations as indicated in parentheses. […] Plants were germinated and grown in the presence of each BR intermediate for 4-7 days either in the light or in complete darkness. Hypocotyl lengths of 30-50 plants in each treatment were measured and averaged.

[2] = tested on: DDWF1; assay: Substrate specificity of recombinant DDWF1 with BR intermediates, HPLC analysis; assay type: biochemical, pea; conditions: reaction mixtures analyzed on HPLC
Procedure: For HPLC analysis, BR intermediates were incubated with the DDWF1 as with testosterone, and the mixture was analyzed on the Waters 626 LC System and Photodiode Array Detector (Waters, Milford, Mass.). The reverse-phase Supelcosil LC-18 (250×4.6 mm, Supelco, Pa., USA) was used at a flow rate of 2 ml/min. The solvents used were 45% acetonitrile for the first 20 min, a gradient of 45% to 100% for the next 20 min, and pure acetonitrile for the last 10 min.

[3] = tested on: DDWF1; assay: DDWF1 activity assay with [4-14C]testosterone, TLC analysis; assay type: biochemical, pea; conditions: N-terminal truncated recombinant DDWF1
Procedure: Forty μl of the [4-^14C]testosterone (Amersham-Pharmacia, Cat. No. CFA129, 193 μCi/mg) was aliquoted, and the solvent was evaporated under gentle stream of N2 gas. Yeast microsomal fractions were prepared as described (Pompon et al., 1996). Thirty μg of microsomal fraction, 5 μg of Pra2 protein, and various amounts of the recombinant DDWF1 were used for each reaction, each with 175 μl of the reaction buffer (1M HEPES, pH 7.4, 0.1 mM EDTA, 0.5 mM GTP, 10 mM MgCl2). The mixture was transferred to the tube containing the lyophilized testosterone and incubated for 10 min at 37° C. Twenty-five μl of NADPH solution, prepared in the same reaction buffer, was then added to the mixture to a final concentration of 1 mM. The total mixture was further incubated for 30 min at 37° C. and terminated by adding 1 ml of ethyl acetate and vortexing for 30 sec. After centrifugation for 4 min at 15000×g, the upper layer was recovered and evaporated in chemical hood overnight. The dry pellet was dissolved in 20 μl of ethyl acetate, spotted on TLC on Silicagel 60 F254 (20×20 cm, Merck, Darmstadt, Germany), and developed in dichloromethane/acetone (4:1 by volume) and then in chloroform/ethyl acetate/ethanol (4:1:0.7 by volume) as described (Waxman, 1991).

[4] = target: Q79L Pra2-GST fusion protein (constitutively active form) [GST: P08515]
[5] = target: T34N Pra2-GST fusion protein (dominant negative form) [GST: P08515]
[6] = target: wild type Pra2-GST fusion protein [GST: P08515]

CC(C)[C@H](C)[C@@H](O)[C@H](O)[C@@H](C)[C@H]1CC[C@H]2[C@@H]3C[C@H](O)[C@H]4C[C@H](O)[C@H](O)C[C@]4(C)[C@H]3CC[C@]12C [6-OHCS, 6α-hydroxycastasterone]
stimulatory effect on hypocotyls as % of the BL effect [1]: about 50%

CC(C)[C@H](C)[C@@H](O)[C@H](O)[C@@H](C)[C@H]1CC[C@H]2[C@@H]3CC[C@H]4C[C@H](O)[C@H](O)C[C@]4(C)[C@H]3CC[C@]12C [6-deoxoCS, 6-deoxocastasterone]
stimulatory effect on hypocotyls as % of the BL effect [1]: ~60%

CC(C)[C@H](C)[C@@H](O)[C@H](O)[C@@H](C)[C@H]1CC[C@H]2[C@@H]3COC(=O)[C@H]4C[C@H](O)[C@H](O)C[C@]4(C)[C@H]3CC[C@]12C [BL, brassinolide]
rescue of the dwarfish hypocotyls in BR feeding experiment ([1]; BL 10^-8 M): completely rescued
rescue of the dark-specific dwarfish hypocotyls ([1]; anti-sense pra2 transgenic tobacco grown in the dark, phytohormones at physiological concentrations, BL 10^-8 M): completely rescued
growth kinetics of transgenic versus control seedlings in the presence of BL ([1]; dark-grown seedlings, hypocotyl length over time, FIG. 4C): became similar
BL effect on transgenic plants grown in the light ([1]; transgenic plants grown in the light): No BL effects

CC(C)[C@H](C)[C@@H](O)[C@H](O)[C@@H](C)[C@H]1CC[C@H]2[C@@H]3CC(=O)[C@H]4C[C@H](O)[C@H](O)C[C@]4(C)[C@H]3CC[C@]12C [CS, castasterone]
rescue of the dwarfish hypocotyls in BR feeding experiment ([1]; BL 10^-8 M): completely rescued
conversion by recombinant DDWF1 (substrate specificity) [2]: not the substrate

CC(C)[C@H](C)[C@@H](O)[C@H](O)[C@@H](C)[C@H]1CC[C@H]2[C@@H]3CC(=O)[C@H]4C[C@H](O)CC[C@]4(C)[C@H]3CC[C@]12C [TY, typhasterol]
conversion by recombinant DDWF1 (substrate specificity) [2]: converted to CS

C[C@]12CC[C@H]3[C@@H](CCC4=CC(=O)CC[C@@]43C)[C@@H]1CC[C@@H]2O [Testosterone]
substrate for DDWF1 [3]: not the substrate

gibberellins [GA]
stimulatory effect on hypocotyls relative to that by BL ([1]; anti-sense pra2 transgenic tobacco grown in the dark, phytohormones at physiological concentrations): 20-30%

B1: recombinant N-terminal truncated DDWF1, soluble form expressed in E. coli (protein)
chain: MALQVLTLPSWVTLFTTFAILLLFSRRLRRRQYNLPPGPKPWPIIGNFNLIGTLPHQSLHGLTQKYGPIMHLWFGSKRVVVGSTVEMAKAFLKTHDATLAGRPKFSAGKYTTYNYSDITWSQYGPYWRQARRMCLLELFSAKRLESYEYIRKQELHVFLHELFDSRNKTILLKDHLSSLSLNVISRMVLGRKYLEKVENSIISPDEFKNMLDELFLLNGILNIGDFIPWIHFLDFQGYVKRMKVLSKKFDGFMEHVLEEHIERRKGVKDYVAKDMVDVLLQLAEDPDLEVKLERHGVKAFTQDLIAGGTESSAVTVEWAISELIRKPEIFKKATEELDRVIGRERWVEEKDIANLPYVYAIAKETMRLHPVAPMLVPREAREDCNINGYDIPKGSLILVNTWTIARDSNVWDNPNEFMPERFLGKDIDVKGHDYELLPFGAGRRMCPGYPLGIKVIQSSLANLLHGFNWRLSDDVKKEDLNMEEIFGLSTPKKIHPG
conversion efficiency (DDWF1 hydroxylase activity on a testosterone intermediate, TLC) [4]: the conversion efficiency was slightly higher with the wild type and Q79L than with the T34N
conversion efficiency (DDWF1 hydroxylase activity on a testosterone intermediate, TLC) [5]: the conversion efficiency was slightly higher with the wild type and Q79L than with the T34N
conversion efficiency (DDWF1 hydroxylase activity on a testosterone intermediate, TLC) [6]: the conversion efficiency was slightly higher with the wild type and Q79L than with the T34N
